Source: patent US7138361B2, “Herbicidal heterocycles” (E. I. du Pont de Nemours and Company, priority 2000, dated 2006)

Legend:
Assay type in all cases: in vivo
[1] = test system: Surinam grass (Brachiaria decumbens); test: Test B postemergence; conditions: 13 to 15 days
In short: (§1)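 Seeds were planted and sprayed preemergence with test chemical in a non-phytotoxic solvent mixture containing surfactant; postemergence plants (2 to 18 cm, 1- to 4-leaf stage) received the same formulation. Greenhouse hold 13 to 15 days, then visual rating versus untreated controls on a 0–100 scale (0 no effect, 100 complete control).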

[2] = test system: barnyardgrass (Echinochloa crus-galli); test: Test B postemergence; conditions: 13 to 15 days
In short: as §1

[3] = test system: blackgrass (Alopecurus myosuroides); test: Test B postemergence; conditions: 13 to 15 days
In short: as §1

[4] = test system: cocklebur (Xanthium strumarium); test: Test B postemergence; conditions: 13 to 15 days
In short: as §1

corn (Zea mays) [5] = test: Test B postemergence; conditions: 13 to 15 days
In short: as §1

[6] = test system: crabgrass (Digitaria sanguinalis); test: Test B postemergence; conditions: 13 to 15 days
In short: as §1

[7] = test system: giant foxtail (Setaria faberii); test: Test B postemergence; conditions: 13 to 15 days
In short: as §1

[8] = test system: lambsquarters (Chenopodium album); test: Test B postemergence; conditions: 13 to 15 days
In short: as §1

[9] = test system: morning glory (Ipomoea hederacea); test: Test B postemergence; conditions: 13 to 15 days
In short: as §1

[10] = test system: velvetleaf (Abutilon theophrasti); test: Test B postemergence; conditions: 13 to 15 days
In short: as §1

[11] = test system: wheat (Triticum aestivum); test: Test B postemergence; conditions: 13 to 15 days
In short: as §1

wild oat (Avena fatua) = test: Test B postemergence; conditions: 13 to 15 days
In short: as §1

[12] = test system: Surinam grass (Brachiaria decumbens); test: Test B preemergence; conditions: scale 0 to 100, 0 no effect, 100 complete control
In short: as §1

[13] = test system: barnyardgrass (Echinochloa crus-galli); test: Test B preemergence; conditions: scale 0 to 100, 0 no effect, 100 complete control
In short: as §1

[14] = test system: cocklebur (Xanthium strumarium); test: Test B preemergence; conditions: scale 0 to 100, 0 no effect, 100 complete control
In short: as §1

corn (Zea mays) [15] = test: Test B preemergence; conditions: scale 0 to 100, 0 no effect, 100 complete control
In short: as §1

[16] = test system: crabgrass (Digitaria sanguinalis); test: Test B preemergence; conditions: scale 0 to 100, 0 no effect, 100 complete control
In short: as §1

[17] = test system: giant foxtail (Setaria faberii); test: Test B preemergence; conditions: scale 0 to 100, 0 no effect, 100 complete control
In short: as §1

[18] = test system: lambsquarters (Chenopodium album); test: Test B preemergence; conditions: scale 0 to 100, 0 no effect, 100 complete control
In short: as §1

[19] = test system: morning glory (Ipomoea hederacea); test: Test B preemergence; conditions: scale 0 to 100, 0 no effect, 100 complete control
In short: as §1

[20] = test system: pigweed (Amaranthus retroflexus); test: Test B preemergence; conditions: scale 0 to 100, 0 no effect, 100 complete control
In short: as §1

rice (Oryza saliva) = test: Test B preemergence; conditions: scale 0 to 100, 0 no effect, 100 complete control
In short: as §1

[21] = test system: velvetleaf (Abutilon theophrasti); test: Test B preemergence; conditions: scale 0 to 100, 0 no effect, 100 complete control
In short: as §1

[22] = Rate 125 g/ha, scale 0 (no effect) to 100 (complete control)
[23] = Rate 500 g/ha, scale 0 to 100, 0 is no effect, 100 is complete control

CC(C)(C)c1nn(C2CCN(c3cccc(C(F)(F)F)c3)C2=O)cc1Cl (centres unmarked) [Compound 14]
50: Plant response rating, Crabgrass [6, 22]
70: Plant response rating, Crabgrass [6, 23]
0: Plant response rating, Surinam grass [1, 22] | Plant response rating, Surinam grass [1, 23] | Plant response rating, Barnyardgrass [2, 22] | Plant response rating, Barnyardgrass [2, 23] | Plant response rating, Blackgrass [3, 22] | Plant response rating, Blackgrass [3, 23] | Plant response rating, Cocklebur [4, 22] | Plant response rating, Cocklebur [4, 23] | Plant response rating, Corn (corn (Zea mays) [5]; [22]) | Plant response rating, Corn (corn (Zea mays) [5]; [23]) | Plant response rating, Lambsquarters [8, 22] | Plant response rating, Lambsquarters [8, 23] | Plant response rating, Velvetleaf [10, 22] | Plant response rating, Velvetleaf [10, 23] | Plant response rating, Wheat [11, 22] | Plant response rating, Wheat [11, 23] | Plant response rating, Wild Oat (wild oat (Avena fatua); [22]) | Plant response rating, Wild Oat (wild oat (Avena fatua); [23]) | Plant response rating, Surinam grass ([12]; Preemergence, Rate 500 g/ha) | Plant response rating, Surinam grass ([12]; preemergence, Rate 125 g/ha) | Plant response rating, Barnyardgrass ([13]; Preemergence, Rate 500 g/ha) | Plant response rating, Barnyardgrass ([13]; preemergence, Rate 125 g/ha) | Plant response rating, Cocklebur ([14]; Preemergence, Rate 500 g/ha) | Plant response rating, Cocklebur ([14]; preemergence, Rate 125 g/ha) | Plant response rating, Corn (corn (Zea mays) [15]; Preemergence, Rate 500 g/ha) | Plant response rating, Corn (corn (Zea mays) [15]; preemergence, Rate 125 g/ha) | Plant response rating, Crabgrass ([16]; Preemergence, Rate 500 g/ha) | Plant response rating, Crabgrass ([16]; preemergence, Rate 125 g/ha) | Plant response rating, Foxtail, Giant ([17]; Preemergence, Rate 500 g/ha) | Plant response rating, Foxtail, Giant ([17]; preemergence, Rate 125 g/ha) | Plant response rating, Lambsquarters ([18]; Preemergence, Rate 500 g/ha) | Plant response rating, Lambsquarters ([18]; preemergence, Rate 125 g/ha) | Plant response rating, Morningglory ([19]; Preemergence, Rate 500 g/ha) | Plant response rating, Morningglory ([19]; preemergence, Rate 125 g/ha) | Plant response rating, Pigweed ([20]; Preemergence, Rate 500 g/ha) | Plant response rating, Pigweed ([20]; preemergence, Rate 125 g/ha) | Plant response rating, Rice (rice (Oryza saliva); Preemergence, Rate 500 g/ha) | Plant response rating, Rice (rice (Oryza saliva); preemergence, Rate 125 g/ha) | Plant response rating, Velvetleaf ([21]; Preemergence, Rate 500 g/ha) | Plant response rating, Velvetleaf ([21]; preemergence, Rate 125 g/ha)
20: Plant response rating, Foxtail, Giant [7, 22]
30: Plant response rating, Foxtail, Giant [7, 23] | Plant response rating, Morningglory [9, 22]
80: Plant response rating, Morningglory [9, 23]

O=C1C(n2cccn2)CCN1c1cccc(C(F)(F)F)c1 (centres unmarked) [Compound 15]
0: Plant response rating, Surinam grass [1, 22] | Plant response rating, Surinam grass [1, 23] | Plant response rating, Barnyardgrass [2, 22] | Plant response rating, Barnyardgrass [2, 23] | Plant response rating, Blackgrass [3, 22] | Plant response rating, Cocklebur [4, 22] | Plant response rating, Cocklebur [4, 23] | Plant response rating, Corn (corn (Zea mays) [5]; [22]) | Plant response rating, Corn (corn (Zea mays) [5]; [23]) | Plant response rating, Foxtail, Giant [7, 22] | Plant response rating, Lambsquarters [8, 22] | Plant response rating, Lambsquarters [8, 23] | Plant response rating, Morningglory [9, 22] | Plant response rating, Morningglory [9, 23] | Plant response rating, Velvetleaf [10, 22] | Plant response rating, Velvetleaf [10, 23] | Plant response rating, Wheat [11, 22] | Plant response rating, Wheat [11, 23] | Plant response rating, Wild Oat (wild oat (Avena fatua); [22]) | Plant response rating, Surinam grass ([12]; preemergence, Rate 125 g/ha) | Plant response rating, Barnyardgrass ([13]; Preemergence, Rate 500 g/ha) | Plant response rating, Barnyardgrass ([13]; preemergence, Rate 125 g/ha) | Plant response rating, Cocklebur ([14]; Preemergence, Rate 500 g/ha) | Plant response rating, Cocklebur ([14]; preemergence, Rate 125 g/ha) | Plant response rating, Corn (corn (Zea mays) [15]; Preemergence, Rate 500 g/ha) | Plant response rating, Corn (corn (Zea mays) [15]; preemergence, Rate 125 g/ha) | Plant response rating, Crabgrass ([16]; Preemergence, Rate 500 g/ha) | Plant response rating, Crabgrass ([16]; preemergence, Rate 125 g/ha) | Plant response rating, Foxtail, Giant ([17]; Preemergence, Rate 500 g/ha) | Plant response rating, Foxtail, Giant ([17]; preemergence, Rate 125 g/ha) | Plant response rating, Lambsquarters ([18]; preemergence, Rate 125 g/ha) | Plant response rating, Morningglory ([19]; preemergence, Rate 125 g/ha) | Plant response rating, Pigweed ([20]; Preemergence, Rate 500 g/ha) | Plant response rating, Pigweed ([20]; preemergence, Rate 125 g/ha) | Plant response rating, Rice (rice (Oryza saliva); Preemergence, Rate 500 g/ha) | Plant response rating, Rice (rice (Oryza saliva); preemergence, Rate 125 g/ha)
50: Plant response rating, Crabgrass [6, 23] | Plant response rating, Wild Oat (wild oat (Avena fatua); [23]) | Plant response rating, Velvetleaf ([21]; preemergence, Rate 125 g/ha)
70: Plant response rating, Velvetleaf ([21]; Preemergence, Rate 500 g/ha)
20: Plant response rating, Crabgrass [6, 22] | Plant response rating, Surinam grass ([12]; Preemergence, Rate 500 g/ha)
30: Plant response rating, Blackgrass [3, 23] | Plant response rating, Foxtail, Giant [7, 23] | Plant response rating, Morningglory ([19]; Preemergence, Rate 500 g/ha)
60: Plant response rating, Lambsquarters ([18]; Preemergence, Rate 500 g/ha)
